Assay results from patent publication US12138346B2, “Physiologically active substance carrier” (LEMONEX INC., priority 2017, dated 2024).
One block for each molecule: values may come before it.

Assays:
Type in all cases: physicochemical
[1] = Release of irinotecan from porous silica particles in human plasma; conditions: loaded on negatively charged particles of Example 2-(3)-1), 37° C., 200 rpm
Description: 1 mg of porous silica particles loaded with irinotecan (0.2 mg) was dispersed in 1 mL of human plasma. This solution was maintained in a dynamic condition for horizontal agitation at 37° C. and 200 rpm. The irinotecan-loaded porous silica solution was settled by a centrifugal separator at each time point, an absorbance of the supernatant (λab=255 or 278 nm) was measured to determine an amount of released irinotecan, and results thereof are shown in FIG. 14.

[2] = Release of Cy5-siRNA from porous silica particles; conditions: Cy5-siRNA loaded on particles of Example 2-(1)-2)(ii); SBF (pH 7.4, 37° C.), 60 rpm
Description: 10 μl of the porous silica particles loaded with Cy5-siRNA was re-suspended in SBF (pH 7.4, 37° C.) and then put in a permeable membrane having a pore diameter of 20 kDa (tube in FIG. 18).
Thereafter, the permeable tube was dipped in 1.5 ml of SBF.
Before 24 hours, the released solvent was recovered at a time passing 0.5, 1, 2, 4, 8, 12 and 24 hours. Thereafter, 0.5 ml of released solvent was recovered at an interval of 24 hours for fluorescence measurement, followed by addition of SBF in equal amount.
Fluorescent intensity of Cy5-siRNA was measured at a wavelength of 670 nm (λex=647 nm) to determine a release degree of siRNA, and results thereof are shown in FIG. 19.

[3] = Release of doxorubicin from porous silica particles; conditions: loaded on porous silica particles of Example 1-(1); PBS, 37° C., 200 rpm
Description: 0.5 mg of porous silica particles loaded with doxorubicin (0.1 mg) was dispersed in PBS. This solution was maintained in a dynamic condition for horizontal agitation at 37° C. and 200 rpm. The doxorubicin-loaded porous silica solution was settled by a centrifugal separator at each time point, an absorbance of the supernatant (λab=480 nm) was measured to determine an amount of released doxorubicin, and results thereof are shown in FIG. 13.

[4] = Release of sorafenib from porous silica particles; conditions: loaded on particles of Example 1-(11)-5)(i) (hydrophobic substituent); 1×PBS, 37° C., 200 rpm
Description: 1 mg of porous silica particles loaded with sorafenib (0.1 mg) was dispersed in 10 mL of 1×PBS mL. This solution was maintained in a dynamic condition for horizontal agitation at 37° C. and 200 rpm. The sorafenib-loaded porous silica solution was settled by a centrifugal separator at each time point, an absorbance of the supernatant (λab=270 nm) was measured to determine an amount of released sorafenib, and results thereof are shown in FIG. 15.

[5] = Release of p53 peptides from porous silica particles; conditions: loaded on particles of Example 1-(11)-5)(i), 37° C., 20 rpm
Description: 5 mg of particles loaded with p53 peptides was put in 5 mL of 1×PBS containing 10% FBS or 5 mL of 1×PBS, and held in a dynamic environment while rotating at 37° C. and 20 rpm. The solution was centrifuged at 8500 rpm at each time point, and a fluorescent intensity of 5(6)-carboxy fluorescein (FAM) as a fluorescent label coupled to p53 peptide in the supernatant was measured ([…]: 480 nm, Emission: 520 nm).

[6] = Release of RNase A from porous silica particles; conditions: over 250 hours or more; SBF (pH 7.4) or PBS (pH 7.4), 37° C.; loaded on particles of Example 1-(9)
Description: 100 μg of the porous silica particles loaded with RNase A having fluorescence labeled therewith was re-suspended in 200 μl of SBF (pH 7.4) or PBS (pH 7.4).
Release of RNase A was performed at 37° C. while horizontally stirring at 60 rpm.
At a time point of 6, 12, 24, 48, 96, 144 and 240 hours, 200 μl of released solvent was recovered for fluorescence measurement, followed by addition of SBF or PBS in equal amount.

Molecule: siRNA: 21 base pair duplex siRNA that targets green fluorescent protein (GFP), SEQ ID NO: 1 and 2; loaded on particles of Example 2-(1)-2)(ii) (sense GGCUACGUCCAGGAGCGCACC; antisense UGCGCUCCUGGACGUAGCCUU; Cy5 label, chemistry not fully specified)
time over which 50% of siRNA was released [2]: about 48 hours

Molecule: Z-Gly-Gly-Qln-Ser-Qln-Qln-Thr-Phe-Y-Asn-Leu-Trp-Arg-Leu-Leu-X-Qln-Asn-NH2 (GGXSXXTFXNLWRLLXXN; not fully specified; FAM label; triazole staple; C-terminal amide; p53 peptide; SITE 3 1 - Xaa is Qln; 2 - Xaa is Qln; SITE 9 3 - Xaa is a non-natural amino acid introduced with an alkyne functional group wherein 4-pentynoic acid is introduced at a side chain of D-Lys; SITE 16 4 - Xaa is a non-natural amino acid introduced with an azide functional group and denotes 2-amino-5-azido-pentanoic acid; SITE 17 5 - Xaa is Qln) [FAM-labelled triazole-stapled peptide mimicking p53, antagonist of hMDM2]
release of p53 peptide (in words) ([5]; 1×PBS containing 10% FBS): may be released outside the particle | release of p53 peptide (in words) ([5]; 1×PBS): not released

B1: RNase A: RNase A (Sigma Aldrich, R6513), fluorescence labeled, loaded on particles of Example 1-(9) (protein, UniProt P61823 27-150, looked up)
Ribonuclease pancreatic: KETAAAKFERQHMDSSTSAASSSNYCNQMMKSRNLTKDRCKPVNTFVHESLADVQAVCSQKNVACKNGQTNCYQSYSTMSITDCRETGSSKYPNCAYKTTQANKHIIVACEGNPYVPVHFDASV
modifications: fluorescence labeled
RNase A released [6]: ~100%

Next, values leading:

irinotecan released ([1]; after 5.5 hours): about 50% | time over which irinotecan was continuously released [1]: ≥ 120 h
Molecule: CCc1c2c(nc3ccc(OC(=O)N4CCC(N5CCCCC5)CC4)cc13)-c1cc3c(c(=O)n1C2)COC(=O)[C@]3(O)CC [irinotecan]

release of doxorubicin (in words) [3]: relatively quickly released | time over which doxorubicin was continuously released [3]: ≥ 70 h
Molecule: COc1cccc2c1C(=O)c1c(O)c3c(c(O)c1C2=O)C[C@@](O)(C(=O)CO)C[C@@H]3O[C@H]1C[C@H](N)[C@H](O)[C@H](C)O1 [doxorubicin]

release of sorafenib (in words) [4]: very slowly released
Molecule: CNC(=O)c1cc(Oc2ccc(NC(=O)Nc3ccc(Cl)c(C(F)(F)F)c3)cc2)ccn1 [sorafenib]
